Tests used:
[1] = tested on: MCF7 WT Brk expressing cells; assay: PI staining and FACS analysis, % G1 content; assay type: cell-based, human; conditions: PD0332991 up to 100 nM
Description: Immunoprecipitation with IgG served as a negative control (FIG. 6C). DNA with Hoechst stain is in blue and is merged with red and green staining (FIG. 6D). (FIG. 6E) Cdk4 was immunoprecipitated from the lysates and recombinant Rb was added to perform an in vitro kinase assay in the presence of ATP Immunoblot analysis was performed to probe for Rb, Ser780 pRb and cdk4 Immunoprecipitation with IgG served as a negative control. (FIG. 6F) Cells were treated with different concentrations of PD0332291 or DMSO as a control at Day 2. Total cell numbers were analyzed by counting 24 and 48 hours post treatment to determine IC50 values. (FIG. 6G) Cells were treated with different concentration of PD032291 or DMSO and analyzed by PI staining and FACS analysis. % G1 content is plotted.
The PCR fragments were ligated to the T7pGEMEX human His-p27 or T7pGEMEX human Flag-p27 plasmid for expression in E. coli. Mutants Y74F, Y88F, and Y88/89F were previously described (12). Flag-tagged p27 mutants were purified by Flag-immunoprecipitation with Flag antibody (M-2, Sigma F-18C9) and eluted with Flag peptide (Sigma F-4799) according to manufacturer's protocol. His-tagged p27 mutants were purified by FPLC via his-trap affinity chromatography (His-Trap HP, GE Healthcare 71-5247-01). The affinity column was stripped according to manufacturer's protocol, then washed with 5 column volumes of 100 mM CoCl2. […]

[2] = tested on: MCF7 mock, WT, KM and YF cells; assay: Viability of PD0332991 treated Brk expressing MCF7 lines; assay type: cell-based, human; conditions: all concentrations of the drug
From the text: The PCR fragments were ligated to the T7pGEMEX human His-p27 or T7pGEMEX human Flag-p27 plasmid for expression in E. coli. Mutants Y74F, Y88F, and Y88/89F were previously described (12). Flag-tagged p27 mutants were purified by Flag-immunoprecipitation with Flag antibody (M-2, Sigma F-18C9) and eluted with Flag peptide (Sigma F-4799) according to manufacturer's protocol. His-tagged p27 mutants were purified by FPLC via his-trap affinity chromatography (His-Trap HP, GE Healthcare 71-5247-01). The affinity column was stripped according to manufacturer's protocol, then washed with 5 column volumes of 100 mM CoCl2. The crude material was applied with a loading buffer consisting of 6 M urea, 500 mM NaCl, 50 mM Tris-HCl, pH 7.5 and 20% glycerol. The material was washed with 500 mM NaCl, 50 mM Tris-HCl, pH 7.5 and 10% glycerol. The purified material was eluted with 500 mM imidazole,20 mM Hepes pH 7.4 and 1 M KCl. The protein was then dialyzed overnight in a solution of 25 mM Hepes pH 7.7, 150 mM NaCl, 5 mM MgCl2 and 0.05% NP40. All purified proteins were analyzed by Coomassie and immunoblot analysis. […] Cells were counted using the automated cell counter (BioRad TC-20).Viability was measured by Trypan Blue staining and counted using the cell counter. • Immunoprecipitation. […]

With `CC(=O)c1c(C)c2cnc(Nc3ccc(N4CCNCC4)cn3)nc2n(C2CCCC2)c1=O` [PD0332991] the G1 content [1] was “approximately 55%” and the viability [2] was “unchanged”.

— patent US11260100B2, “Compositions targeting the interaction domain between p27Kip1 and Brk and methods of use thereof to inhibit p27 Y phosphorylation and cdk4 activity” (The Research Foundation for the State University of New York, priority 2014, dated 2022)
